The values below come from patent US8227422B2, “Peptides and compounds that bind to a receptor” (Glaxosmithkline LLC, priority 1996, dated 2012).

Experiment [1] has as its target T1, human TPO-R (transfected Ba/F3 cells) (Homo sapiens, UniProt P40238).
T1 construct: Murine IL-3 dependent Ba/F3 cells were transfected with full length human TPO-R; expressed in transfected cells; host or cells: murine Ba/F3 cells
T1 sequence (P40238 26-635): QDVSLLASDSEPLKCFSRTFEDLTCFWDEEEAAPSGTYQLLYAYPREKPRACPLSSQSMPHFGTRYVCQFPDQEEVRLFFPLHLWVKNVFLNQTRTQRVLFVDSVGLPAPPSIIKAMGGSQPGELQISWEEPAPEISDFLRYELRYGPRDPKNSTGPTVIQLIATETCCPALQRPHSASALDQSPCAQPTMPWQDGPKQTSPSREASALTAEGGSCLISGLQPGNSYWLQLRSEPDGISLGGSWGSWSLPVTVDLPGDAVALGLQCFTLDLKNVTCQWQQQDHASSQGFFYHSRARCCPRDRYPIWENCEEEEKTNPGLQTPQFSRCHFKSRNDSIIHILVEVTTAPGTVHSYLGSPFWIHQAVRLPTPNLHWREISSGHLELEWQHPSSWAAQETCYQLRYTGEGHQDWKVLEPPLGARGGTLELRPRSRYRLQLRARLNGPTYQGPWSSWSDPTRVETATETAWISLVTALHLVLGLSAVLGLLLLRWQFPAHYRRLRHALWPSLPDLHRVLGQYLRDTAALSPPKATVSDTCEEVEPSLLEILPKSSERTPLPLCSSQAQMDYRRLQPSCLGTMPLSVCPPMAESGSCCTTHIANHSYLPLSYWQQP
The experiment can be described thus: Thrombopoietin dependent cell proliferation assay (MTT), TPO-R transfected Ba/F3 cells. It counts as cell-based.
Procedure: Bioactivity of the peptides can be measured using a thrombopoietin dependent cell proliferation assay. Murine IL-3 dependent Ba/F3 cells were transfected with full length human TPO-R. In the absence of IL-3 (WEHI-3 conditioned media), these cells are dependent on TPO for proliferation.
The cells were grown in complete RPMI-10 media, containing 10% WEHI-3 conditioned media, then washed twice in PBS, resuspended in media which lacked WEHI-3 conditioned media, and added to wells containing dilutions of peptide or TPO at 2×10^4 cells/well. The cells were incubated for 48 hours at 37° C. in a humidified 5% CO2 atmosphere and metabolic activity was assayed by the reduction of MTT to formazan, with absorbance at 570 nm measured on an ELISA plate reader.

A further experiment deals with T2, TPO-R (Homo sapiens, UniProt P40238).
T2 construct: made in house
T2 sequence (P40238 26-491 limits assumed): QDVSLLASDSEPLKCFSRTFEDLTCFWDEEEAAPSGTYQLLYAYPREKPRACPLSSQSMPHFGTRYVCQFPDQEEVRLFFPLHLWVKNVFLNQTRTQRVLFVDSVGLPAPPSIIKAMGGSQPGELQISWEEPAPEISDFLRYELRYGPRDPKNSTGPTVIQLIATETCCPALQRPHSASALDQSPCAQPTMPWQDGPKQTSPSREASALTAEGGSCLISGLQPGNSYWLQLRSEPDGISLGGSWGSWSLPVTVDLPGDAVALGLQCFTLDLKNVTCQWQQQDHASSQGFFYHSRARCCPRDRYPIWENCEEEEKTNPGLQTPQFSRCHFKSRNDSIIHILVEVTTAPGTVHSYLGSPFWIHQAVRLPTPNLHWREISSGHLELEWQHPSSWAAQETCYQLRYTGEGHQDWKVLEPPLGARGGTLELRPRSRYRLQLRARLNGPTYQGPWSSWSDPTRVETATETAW
Kind of experiment: Competition binding assay (equilibrium binding ELISA, MBP-TPO156 tracer) on immobilized TPO-R. As for the experimental part:
A variety of methods can be used to evaluate IC50 values. For example, an equilibrium binding ELISA assay, using either MBP-TPO or lacI-peptide tracer, was used to determine whether the peptides inhibit the binding of TPO to the extracellular domain of the TPO receptor. Typically, the IC50 value were determined using the free peptide. The IC50 value can be determined using the free peptide, which optionally can be C-terminally amidated, or can be prepared as an ester or other carboxy amide.
Binding affinities of chemically synthesized peptides for TPO-R were measured in a competition binding assay. The wells of a microtiter plate were coated with 1 mg streptavidin, blocked with PBS/1% BSA, followed by 50 ng of biotinylated anti-receptor immobilizing antibody (Ab179). The wells were then treated with a 1:10 dilution of soluble TPO-R harvest. Various concentrations of peptide or peptide mimetic were mixed with a constant amount of a truncated form of TPO consisting of residues 1-156 fused to the C-terminus of maltose binding protein (MBP-TPO156). The peptide MBP-TPO156 mixtures were added to the TPO-R coated wells, incubated for 2 hours at 4° C. and then washed with PBS. The amount of MBP-TPO156 that was bound at equilibrium was measured by adding a rabbit anti-sera directed against MBP, followed by alkaline phosphatase conjugated goat anti-rabbit IgG. The amount of alkaline phosphatase in each well was then determined using standard methods.
The assay is conducted over a range of peptide concentrations and the results are graphed such that the y axis represents the amount of bound MBP-TPO156 and the x axis represents the concentration of peptide or peptide mimetic.
For orientation: In an ELISA, binding on a coated surface is turned into a signal by an enzyme label.

[2] abbreviates: Table 5, substitutions in cyclized compound, read-out: EC50 (nM) Cell Prolif.

Where two headings read alike, the source gives them in different places. Where a SMILES comes first, the peptide text is derived from it.

`CC[C@H](C)[C@H](NC(C)=O)C(=O)N[C@@H](CCC(=O)O)C(=O)NCC(=O)N1CCC[C@H]1C(=O)N[C@H](C(=O)N[C@@H](CC(C)C)C(=O)N[C@@H](CCCNC(=N)N)C(=O)N[C@@H](CCC(N)=O)C(=O)N[C@@H](Cc1c[nH]c2ccccc12)C(=O)N[C@@H](CC(C)C)C(=O)N[C@@H](C)C(=O)N[C@@H](C)C(=O)N[C@@H](CCCNC(=N)N)C(=O)N[C@@H](C)C(=O)NCCCC[C@H](NC(=O)CCNC(=O)[C@H](C)NC(=O)[C@H](CCCNC(=N)N)NC(=O)[C@H](C)NC(=O)[C@H](C)NC(=O)[C@H](CC(C)C)NC(=O)[C@H](Cc1c[nH]c2ccccc12)NC(=O)[C@H](CCC(N)=O)NC(=O)[C@H](CCCNC(=N)N)NC(=O)[C@H](CC(C)C)NC(=O)[C@@H](NC(=O)[C@@H]1CCCN1C(=O)CNC(=O)[C@H](CCC(=O)O)NC(=O)[C@@H](NC(C)=O)[C@@H](C)CC)[C@@H](C)O)C(N)=O)[C@@H](C)O`: the 50% effective concentration (EC50) (in general, the midpoint of the concentration-response curve) in experiment [1] (Table 10, truncations of the dimer, read-out: EC50 (nM) Cell Prolif.) was < 500 nM.

`CC[C@H](C)[C@@H]1NC(=O)[C@@H](N)CSSC[C@@H](C(N)=O)NC(=O)[C@H](C)NC(=O)[C@H](CCCNC(=N)N)NC(=O)[C@H](C)NC(=O)[C@H](C)NC(=O)[C@H](CC(C)C)NC(=O)[C@H](Cc2c[nH]c3ccccc23)NC(=O)[C@H](CCC(N)=O)NC(=O)[C@H](CCCNC(=N)N)NC(=O)[C@H](CC(C)C)NC(=O)[C@H]([C@@H](C)O)NC(=O)[C@@H]2CCCN2C(=O)CNC(=O)[C@H](CCC(=O)O)NC1=O` (HELM PEPTIDE1{C.I.E.G.P.T.L.R.Q.W.L.A.A.R.A.C.[am]}$PEPTIDE1,PEPTIDE1,1:R3-16:R3$$$V2.0): the concentration for half-maximal inhibition (IC50) (as a rule, the midpoint of a concentration-inhibition curve) on TPO-R (Table 9, read-out: IC50) is ≤ 500 nM. For `CC(C)C[C@H](NC(=O)[C@@H](NC(=O)[C@@H]1CCCN1C(=O)CNC(=O)[C@@H](NC(=O)[C@@H](N)Cc1c[nH]cn1)C(C)C)[C@@H](C)O)C(=O)N[C@@H](CCCNC(=N)N)C(=O)N[C@@H](CO)C(=O)NCC(=O)N[C@@H](CSSC[C@H](NC(=O)CNC(=O)[C@H](CO)NC(=O)[C@H](CCCNC(=N)N)NC(=O)[C@H](CC(C)C)NC(=O)[C@@H](NC(=O)[C@@H]1CCCN1C(=O)CNC(=O)[C@@H](NC(=O)[C@@H](N)Cc1c[nH]cn1)C(C)C)[C@@H](C)O)C(N)=O)C(N)=O` (HELM PEPTIDE1{H.V.G.P.T.L.R.S.G.C.[am]}|PEPTIDE2{H.V.G.P.T.L.R.S.G.C.[am]}$PEPTIDE1,PEPTIDE2,10:R3-10:R3$$$V2.0), at TPO-R (Table 7, dimer compounds, read-out: IC50), the concentration for half-maximal inhibition (IC50) was ≤ 200000 nM. The EC50 in experiment [1] (Table 7, dimer compounds, read-out: EC50 (nM) Prolif.) was < 200000 nM. Regarding `CC[C@H](C)[C@@H]1NC(=O)[C@H](Cc2c[nH]c3ccccc23)NC(=O)[C@H](CCC(=O)O)NC(=O)[C@H](CCCNC(=N)N)NC(=O)[C@H](CC(C)C)NC(=O)[C@H]([C@@H](C)O)NC(=O)[C@@H]2CCCN2C(=O)CNC(=O)[C@H](CC(=O)O)NC(=O)[C@H](C)NC(=O)[C@@H](N)CSSC[C@@H](C(N)=O)NC(=O)[C@H](Cc2cccnc2)NC(=O)[C@H](CO)NC1=O` [F-(Pyridylala)] (HELM PEPTIDE1{C.A.D.G.P.T.L.R.E.W.I.S.[O=C([C@H](Cc1cccnc1)N[*:1])[*:2]].C.[am]}$PEPTIDE1,PEPTIDE1,1:R3-14:R3$$$V2.0; N-terminus and C-terminus assumed), the 50% inhibitory concentration (IC50) at TPO-R (Table 5, read-out: IC50) was ≤ 500 nM. Moreover, in experiment [1] (setting [2]), the EC50 was < 500 nM. In the case of `CC[C@H](C)[C@@H]1NC(=O)[C@H](Cc2c[nH]c3ccccc23)NC(=O)[C@H](CCC(=O)O)NC(=O)[C@H](CCCNC(=N)N)NC(=O)[C@H](CC(C)C)NC(=O)[C@H]([C@@H](C)O)NC(=O)[C@@H]2CCCN2C(=O)CNC(=O)[C@H](CC(=O)O)NC(=O)[C@H](C)NC(=O)[C@@H](NC(=O)CNC(=O)CN)CSSC[C@@H](C(=O)NCC(=O)NCC(=O)O)NC(=O)[C@H](Cc2ccccc2)NC(=O)[C@H](CO)NC1=O` [G G C A D G P T L R E W I S F C G G] (HELM PEPTIDE1{G.G.C.A.D.G.P.T.L.R.E.W.I.S.F.C.G.G}$PEPTIDE1,PEPTIDE1,3:R3-16:R3$$$V2.0; N-terminus and C-terminus assumed; bridges inferred), the IC50 on TPO-R (Table 3, read-out: Affinity (IC50)) is ≤ 500 nM. Regarding `CC(C)C[C@@H]1NC(=O)[C@H](Cc2c[nH]c3ccccc23)NC(=O)[C@H](CCC(=O)O)NC(=O)[C@H](CCCNC(=N)N)NC(=O)[C@H](CC(C)C)NC(=O)[C@H]([C@@H](C)O)NC(=O)[C@@H](NC(=O)CNC(=O)CN)CSSC[C@@H](C(=O)NCC(=O)NCC(=O)O)NC(=O)[C@H](Cc2ccccc2)NC(=O)CNC(=O)CNC(=O)[C@H](Cc2c[nH]cn2)NC1=O` [G G C T L R E W L H G G F C G G] (HELM PEPTIDE1{G.G.C.T.L.R.E.W.L.H.G.G.F.C.G.G}$PEPTIDE1,PEPTIDE1,3:R3-14:R3$$$V2.0; N-terminus and C-terminus assumed; bridges inferred), on TPO-R (read-out: IC50 value), the half-maximal inhibitory concentration (IC50) is ≤ 500 nM. Consider `CC[C@H](C)[C@@H]1NC(=O)[C@H](Cc2c[nH]c3ccccc23)NC(=O)[C@H](CCC(=O)O)NC(=O)[C@H](CCCNC(=N)N)NC(=O)[C@H](CC(C)C)NC(=O)[C@H]([C@@H](C)O)NC(=O)[C@@H]2CCCN2C(=O)CNC(=O)[C@H](CC(=O)O)NC(=O)[C@H](C)NC(=O)CSC[C@@H](C(N)=O)NC(=O)CCCCNC1=O` [S,F-Ava(thioether)] (HELM PEPTIDE1{[O=C(C[*:3])[*:2]].A.D.G.P.T.L.R.E.W.I.[O=C(CCCCN[*:1])[*:2]].C.[am]}$PEPTIDE1,PEPTIDE1,1:R3-13:R3$$$V2.0; N-terminus and C-terminus assumed), for which the concentration for half-maximal inhibition (IC50) at TPO-R (Table 5, read-out: IC50) was ≤ 500 nM. Moreover, the EC50 in experiment [1] (setting [2]) is < 200000 nM. On the same counts, the results for `CC[C@H](C)[C@@H]1NC(=O)[C@H](Cc2c[nH]c3ccccc23)NC(=O)[C@H](CCC(=O)O)NC(=O)[C@H](CCCNC(=N)N)NC(=O)[C@H](CC(C)C)NC(=O)[C@H]([C@@H](C)O)NC(=O)[C@@H]2CCCN2C(=O)CNC(=O)[C@H](CC(=O)O)NC(=O)[C@H](C)NC(=O)[C@@H](N)CSSC[C@@H](C(N)=O)NC(=O)CCCCNC1=O` [S,F-Ava] (HELM PEPTIDE1{C.A.D.G.P.T.L.R.E.W.I.[O=C(CCCCN[*:1])[*:2]].C.[am]}$PEPTIDE1,PEPTIDE1,1:R3-13:R3$$$V2.0; N-terminus and C-terminus assumed) are ≤ 500 nM and < 200000 nM. For the compound `CC[C@H](C)[C@@H]1NC(=O)[C@H](Cc2c[nH]c3ccccc23)NC(=O)[C@H](CCC(=O)O)NC(=O)[C@H](CCCNC(=N)N)NC(=O)[C@H](CC(C)C)NC(=O)[C@H]([C@@H](C)O)NC(=O)[C@@H]2CCCN2C(=O)CNC(=O)[C@H](CC(=O)O)NC(=O)[C@H](C)NC(=O)[C@@H](N)CSSC[C@@H](C(N)=O)NC(=O)[C@H](Cc2ccccc2)NC(=O)[C@H](C)N(C)C1=O` [S-(N-Me-Ala)] (HELM PEPTIDE1{C.A.D.G.P.T.L.R.E.W.I.[meA].F.C.[am]}$PEPTIDE1,PEPTIDE1,1:R3-14:R3$$$V2.0; N-terminus and C-terminus assumed), on TPO-R (Table 5, read-out: IC50), the IC50 is ≤ 200000 nM. Further, in experiment [1] (setting [2]), the EC50 is < 200000 nM.
